Our source for the Ki values is ChEMBL document CHEMBL2163195, “Development of potent carbonic anhydrase inhibitors incorporating both sulfonamide and sulfamide groups” (J Med Chem, 2012).

The target of the assay is Carbonic anhydrase 9 (Homo sapiens, UniProt Q16790).
Consider `NS(=O)(=O)Nc1ccc(S(N)(=O)=O)cc1`, for which the affinity corresponds to a Ki of 64 nM.

Regarding `NS(=O)(=O)NCc1ccc(S(N)(=O)=O)cc1`, the Ki – broadly, a dissociation constant, usually derived from enzyme kinetics or from competition with a known ligand – was found to be 65 nM. This Ki and that of the molecule before are within 1.5-fold of each other.

As for `NS(=O)(=O)NCCc1ccc(S(N)(=O)=O)cc1`, the Ki is 611 nM.

`NS(=O)(=O)Nc1ccc(S(=O)(=O)Nc2ccc(S(N)(=O)=O)cc2)cc1` had a Ki of 27 nM. Compared with the last molecule, the Ki is about 23-fold lower.

In turn, `NS(=O)(=O)Nc1ccc(S(=O)(=O)NCc2ccc(S(N)(=O)=O)cc2)cc1` yielded a Ki of 35 nM. This Ki and that of the molecule before are within 1.5-fold of each other.

On to `NS(=O)(=O)Nc1ccc(S(=O)(=O)NCCc2ccc(S(N)(=O)=O)cc2)cc1`, for which the affinity corresponds to a Ki of 65 nM.

`NS(=O)(=O)Nc1ccc(S(=O)(=O)Nc2ccc(C(=O)O)cc2)cc1` came in with a Ki of 57 nM.

`NS(=O)(=O)Nc1ccc(S(=O)(=O)Nc2ccc(C(=O)NCCc3ccc(S(N)(=O)=O)cc3)cc2)cc1` returned a Ki of 0.4 nM.

In the case of `CC(=O)Nc1ccc(S(=O)(=O)Nc2ccc(C(=O)NCCc3ccc(S(N)(=O)=O)cc3)cc2)cc1`, the Ki was 4.5 nM.
